Test results: patent publication US4394383A, “N-Alkoxysulfenylcarbamates useful as insecticides” (priority 1981, dated 1983)
Where two headings read alike, the source gives them in different places.

Columns and labels:
Type in all cases: in vivo
[1] = tested on: house flies, Musca domestica; assay: Insecticidal activity against house flies, topical application on the notum, 24 h mortality; conditions: for LD50: Musca domestica
Method: Representative compounds of the N-alkoxysulfenylcarbamate esters of the invention were tested for insecticidal activity against house flies, Musca domestica. Stock 1% concentrated solutions of each of the test compounds were made in acetone, and such solutions diluted with acetone to a concentration of 0.001-0.1%. House flies were treated topically on the notum by 1 μl of each of the diluted acetone solutions and percent mortality was counted 24 hours after application. Insects were held at constant temperature of 60° F.
(§1) The term "LD50 " represents the dose needed to kill 50% of the test animals. In interpreting the values in the table above, the lower the value for LD50 for house flies, the greater the insecticidal potency or toxicity of that particular compound. On the other hand, the higher the value of LD50 for mice, the lower the mammalian toxicity or the greater is the mammalian safety of such compound.

[2] = Mammalian toxicity, oral, Swiss white mice; conditions: mouse, in vivo, po
Method: (§2) Mammalian toxicity was determined against Swiss white mice. The test compound was applied orally using corn oil as the carrier. Results are given as LD50 in mg of compound per kg body weight.
as §1

Swiss white mice = assay: Mammalian toxicity, oral, Swiss white mice; conditions: mice / mammals; comparison with parent carbamate or purified compound
Method: as §2, §1

[3] = Table 1, oral in corn oil, samples contained polysulfide derivative in the amounts indicated, read-out: Mice LD50
[4] = Table 2, polysulfide derivatives, oral in corn oil, read-out: Mice Toxicity LD50

Row | SMILES | LD50 ([1]; read-out: House flies LD50) | LD50 [2, 3] | other results
1 | CCC(CC)OSN(C)C(=O)Oc1cccc2c1OC(C)(C)C2 [Example 12, 2,3-Dihydro-2,2-dimethyl-7-benzofuranyl (1-ethylpropoxysulfeny)(methyl)carbamate] | 21 mg/kg | 63 mg/kg | 
2 | CCCCCCCCCCCCOSN(C)C(=O)Oc1cccc2c1OC(C)(C)C2 [Example 7, 2,3-dihydro-2,2-dimethyl-7-benzofuranyl(dodecyloxysulfenyl)(methyl)carbamate] | 21 mg/kg | 340 mg/kg | 
3 | CCCCCCOSN(C)C(=O)Oc1cccc2c1OC(C)(C)C2 [CH2 (CH2)4 CH3, n = 1, 2,3-dihydro-2,2-dimethyl-7-benzofuranyl(hexyloxysulfenyl)(methyl)carbamate] |  |  | House flies LD50 ([1]; Table 2, polysulfide derivatives): 9.3 µg/g; LD50 [2, 4]: 37 mg/kg
4 | COc1ccc(COSN(C)C(=O)Oc2cccc3c2OC(C)(C)C3)cc1 [Example 16, 2,3-Dihydro-2,2-dimethyl-7-benzofuranyl (P--methoxybenzyloxysulfenyl)(methyl)carbamate] | 13.8 mg/kg | 108 mg/kg | 
5 | CNC(=O)Oc1ccccc1OC(C)C [propoxur, 2-isopropoxyphenyl methylcarbamate, reference compound] |  |  | LD50 ([2]; read-out: LD50 for mice): 62 mg/kg
6 | CCCCOSN(C)C(=O)Oc1cccc(C(C)C)c1 [Example 10, 3-isopropylphenyl(butoxysulfenyl)(methyl)carbamate] | 120 mg/kg | 130 mg/kg | 
7 | CN(SOCc1ccccc1)C(=O)Oc1cccc2c1OC(C)(C)C2 [Example 6, 2,3-dihydro-2,2-dimethyl-7-benzofuranyl(benzyloxysulfenyl)(methyl)carbamate] | 7.5 mg/kg | 59 mg/kg | 
8 | COSSN(C)C(=O)Oc1cccc2c1OC(C)(C)C2 [CH3, n = 2, disulfide derivative of 2,3-dihydro-2,2-dimethyl-7-benzofuranyl(methoxysulfenyl)(methyl)carbamate] | 20.5 mg/kg |  | LD50 [2, 4]: 48 mg/kg
9 | CCCCCCCCCCCCCCCCCCOSN(C)C(=O)Oc1cccc2c1OC(C)(C)C2 [Example 18, 2,3-Dihydro-2,2-dimethyl-7-benzofuranyl (methyl)(octadecyloxysulfenyl)carbamate] | 75 mg/kg | ≥ 1000 mg/kg | 
10 | CC(C)c1cccc(OC(=O)N(C)SOCc2ccccc2)c1 [Example 11, 3-isopropylphenyl(benzyloxysulfenyl)(methyl)carbamate] | 175 mg/kg | 210 mg/kg | 
11 | CN(SOCc1ccc(C(C)(C)C)cc1)C(=O)Oc1cccc2c1OC(C)(C)C2 [Example 17, 2,3-Dihydro-2,2-dimethyl-7-benzofuranyl (P--tert-butylbenzyloxysulfenyl)(methyl)carbamate] | 15.5 mg/kg | 98 mg/kg | 
12 | CCOSN(C)C(=O)Oc1cccc2c1OC(C)(C)C2 [Example 2, 2,3-dihydro-2,2-dimethyl-7-benzofuranyl(ethoxysulfenyl)(methyl)carbamate] | 15.8 mg/kg | 46 mg/kg | 
13 | CNC(=O)Oc1cccc2c1OC(C)(C)C2 [Carbofuran, 2,3-dihydro-2,2-dimethyl-7-benzofuranyl methylcarbamate, reference compound] | 11 mg/kg |  | LD50 ([1]; read-out: LD50 value for house flies): ~11 mg/kg; LD50 [2, 4]: 11 to 19 mg/kg; LD50 ([2]; read-out: LD50 for mice): 11 mg/kg
14 | CN(SOC1CCCCC1)C(=O)Oc1cccc2c1OC(C)(C)C2 [Example 5, 2,3-dihydro-2,2-dimethyl-7-benzofuranyl(cyclohexyloxysulfenyl)(methyl)carbamate] | 21.5 mg/kg | 69 mg/kg | 
15 | CCCCCCOSSN(C)C(=O)Oc1cccc2c1OC(C)(C)C2 [CH2 (CH2)4 CH3, n = 2, disulfide derivative of 2,3-dihydro-2,2-dimethyl-7-benzofuranyl(hexyloxysulfenyl)(methyl)carbamate] | 13 mg/kg |  | LD50 [2, 4]: 72 mg/kg
16 | CCCCCCCCOSN(C)C(=O)Oc1cccc2c1OC(C)(C)C2 [Example 14, 2,3-Dihydro-2,2-dimethyl-7-benzofuranyl (methyl)-(octyloxysulfenyl)carbamate] | 13 mg/kg | 100 mg/kg | 
17 | CC(C)OSN(C)C(=O)Oc1cccc2c1OC(C)(C)C2 [Example 3, 2,3-dihydro-2,2-dimethyl-7-benzofuranyl(isopropoxysulfenyl)(methyl)carbamate] | 31 mg/kg | 55 to 70 mg/kg | 
18 | CC(C)Oc1ccccc1OC(=O)N(C)SOCc1ccccc1 [Example 9, 2-isopropoxyphenyl(benzyloxysulfenyl)(methyl)carbamate] | 30 mg/kg | > 1000 mg/kg | LD50 ([2]; read-out: LD50 for mice): > 1000 mg/kg; mammalian toxicity / safety (in words) (Swiss white mice): much safer to mammals
19 | CCCCCCOSN(C)C(=O)Oc1cccc2c1OC(C)(C)C2 [Example 4, 2,3-dihydro-2,2-dimethyl-7-benzofuranyl(hexyloxysulfenyl)(methyl)carbamate] | 9.3 mg/kg | 88 mg/kg | 
20 | COSN(C)C(=O)Oc1cccc2c1OC(C)(C)C2 [Example 1, 2,3-dihydro-2,2-dimethyl-7-benzofuranyl(methoxysulfenyl)(methyl)carbamate] | 15.5 mg/kg | 43 mg/kg | LD50 [2, 4]: 43 mg/kg
21 | CCCCOSN(C)C(=O)Oc1ccccc1OC(C)C [Example 8, 2-isopropoxyphenyl(butoxysulfenyl)(methyl)] | 46 mg/kg | > 1000 mg/kg | 
22 | CCCCCCCCCCOSN(C)C(=O)Oc1cccc2c1OC(C)(C)C2 [Example 15, 2,3-Dihydro-2,2-dimethyl-7-benzofuranyl (decyloxysulfenyl)(methyl)carbamate] | 7.3 mg/kg | 135 mg/kg | 
23 | CN(SOC(C)(C)C)C(=O)Oc1cccc2c1OC(C)(C)C2 [Example 13, 2,3-Dihydro-2,2-dimethyl-7-benzofuranyl (tert-butoxysulfenyl)(methyl)carbamate] | 20 to 30 mg/kg | 75 mg/kg | 
